We go through one compound from US20080300231A1, “Antibacterial amide macrocycles VI” (priority 2005, published 2008).

One experiment relates to S. aureus T17. Briefly: Minimum inhibitory concentration (MIC), biphenomycin-resistant S. aureus T17. It is filed as cell-based. Here is the method:
Determination of the Minimum Inhibitory Concentration (MIC)
The minimum inhibitory concentration (MIC) is the minimum concentration of an antibiotic with which the growth of a test microbe is inhibited over 18-24 h. The inhibitor concentration can in these cases be determined by standard microbiological methods (see, for example, The National Committee for Clinical Laboratory Standards. Methods for dilution antimicrobial susceptibility tests for bacteria that grow aerobically; approved standard-fifth edition. NCCLS document M7-A5 [ISBN 1-56238-394-9]. NCCLS, 940 West Valley Road, Suite 1400, Wayne, Pa. 19087-1898 USA, 2000). The MIC of the compounds of the invention is determined in the liquid dilution test on the 96-well microtitre plate scale. The bacterial microbes are cultivated in a minimal medium (18.5 mM Na2HPO4, 5.7 mM KH2PO4, 9.3 mM NH4Cl, 2.8 mM MgSO4, 17.1 mM NaCl, 0.033 μg/ml of thiamine hydrochloride, 1.2 μg/ml of nicotinic acid, 0.003 μg/ml of biotin, 1% glucose, 25 μg/ml of each proteinogenic amino acid with the exception of phenylalanine; [H.-P. Kroll; unpublished]) with addition of 0.4% BH broth (test medium). In the case of Enterococcus faecium L4001, heat-inactivated fetal calf serum (FCS; GibcoBRL, Germany) is added to the test medium in a final concentration of 10%. Overnight cultures of the test microbes are diluted to an OD578 of 0.001 (to 0.01 in the case of enterococci) in fresh test medium, and incubated 1:1 with dilutions of the test substances (1:2 dilution steps) in test medium (200 μl final volume). The cultures are incubated at 37° C. for 18-24 hours; enterococci in the presence of 5% CO2
The lowest substance concentration in each case at which no visible bacterial growth occurs any more is defined as the MIC.
Alternative Method for Determining the Minimum Inhibitory Concentration (MIC)
The minimum inhibitory concentration (MIC) is the minimum concentration of an antibiotic with which the growth of a test microbe is inhibited over 18-24 h. The inhibitor concentration can in these cases be determined by standard microbiological methods with modified medium in an agar dilution test (see, for example, The National Committee for Clinical Laboratory Standards. Methods for dilution antimicrobial susceptibility tests for bacteria that grow aerobically; approved standard-fifth edition. NCCLS document M7-A5 [ISBN 1-56238-394-9]. NCCLS, 940 West Valley Road, Suite 1400, Wayne, Pa. 19087-1898 USA, 2000). The bacterial microbes are cultivated on 1.5% agar plates which contain 20% defibrinated horse blood. The test microbes, which are incubated overnight on Columbia blood agar plates (Becton-Dickinson), are diluted in PBS, adjusted to a microbe count of about 5×10^5 microbes/ml and placed dropwise (1-3 μl) on test plates. The test substances comprise different dilutions of the test substances (1:2 dilution steps). The cultures are incubated at 37° C. in the presence of 5% CO2 for 18-24 hours.
The lowest substance concentration in each case at which no visible bacterial growth occurred any more is defined as the MIC and is reported in μg/ml.
The S. aureus strain T17 is isolated in vivo. CFW1 mice are infected intraperitoneally with 4×10^7 S. aureus 133 cells per mouse. 0.5 h after the infection, the animals are treated intravenously with 50 mg/kg biphenomycin B. The kidneys are removed from the surviving animals on day 3 after the infection. After homogenization of the organs, the homogenates are plated out as described for RN4220Bi^R on antibiotic-free and antibiotic-containing agar plates and incubated at 37° C. overnight. […] About 20 of these colonies are tested for the biphenomycin B MIC, and a colony with a MIC of >50 μM is selected for further cultivation, and the strain is referred to as T17.

A further experiment concerns S. aureus RN4220. Briefly: Resistance rate of S. aureus RN4220 on biphenomycin B agar plate. The format is cell-based. The conditions noted are these: agar plate containing 2 μg/ml biphenomycin B (10×MIC), 37° C. overnight. Here is the method:
The S. aureus strain RN4220Bi^R is isolated in vitro. […] Whereas about 1×10^7 cells grow on the antibiotic-free plate, about 100 colonies grow on the antibiotic-containing plate, corresponding to a resistance rate of 1×10^5. Some of the colonies grown on the antibiotic-containing plate are tested for the biphenomycin B MIC. One colony with a MIC of >50 μM is selected for further use, and the strain is referred to as RN4220Bi^R.

Usually MIC stands for the smallest concentration in the dilution series that meets the test's criterion for growth inhibition. `NC[C@H](O)C[C@@H]1NC(=O)[C@@H](N)Cc2cc(ccc2O)-c2ccc(O)c(c2)C[C@@H](C(=O)O)NC1=O` [Biphenomycin B, biphenomycin B, reference compound]: the “MIC S. aureus T17” value with S. aureus T17 (biphenomycin-resistant S. aureus T17) is over 32 µg/mL. In the experiment with S. aureus T17 (colony from kidney selected as strain T17), the MIC was over 50 µM. Further, the resistance rate in the experiment on S. aureus RN4220 is given as 1×10^5.
